From ChEMBL document CHEMBL1649107, “Sulfonate-containing thiiranes as selective gelatinase inhibitors” (ACS Med Chem Lett, 2011)
≈ marks a conversion by molar mass, not a printed value. Calls of active or inactive are those of the source. The rule behind the calls is not given here.

Columns and labels:
[1] = molecular target: T1, Matrix metalloproteinase-9 (Homo sapiens, UniProt P14780); experiment: Inhibition of human recombinant MMP9 catalytic domain assessed as dissociation rate constant by substrate hydrolysis based fluorescence spectrophotometry
[2] = molecular target: T2, Matrix metalloproteinase-14 (Homo sapiens, UniProt P50281); experiment: Inhibition of human recombinant MMP14 catalytic domain assessed as dissociation rate constant by substrate hydrolysis based fluorescence spectrophotometry
[3] = molecular target: T2, Matrix metalloproteinase-14; experiment: Inhibition of human recombinant MMP14 catalytic domain by substrate hydrolysis based fluorescence spectrophotometry
[4] = molecular target: T3, Stromelysin-1 (Homo sapiens, UniProt P08254); experiment: Inhibition of human recombinant MMP3 catalytic domain at 20 uM by substrate hydrolysis based fluorescence spectrophotometry
Target sequence in this assay (P08254 100-477 limits assumed): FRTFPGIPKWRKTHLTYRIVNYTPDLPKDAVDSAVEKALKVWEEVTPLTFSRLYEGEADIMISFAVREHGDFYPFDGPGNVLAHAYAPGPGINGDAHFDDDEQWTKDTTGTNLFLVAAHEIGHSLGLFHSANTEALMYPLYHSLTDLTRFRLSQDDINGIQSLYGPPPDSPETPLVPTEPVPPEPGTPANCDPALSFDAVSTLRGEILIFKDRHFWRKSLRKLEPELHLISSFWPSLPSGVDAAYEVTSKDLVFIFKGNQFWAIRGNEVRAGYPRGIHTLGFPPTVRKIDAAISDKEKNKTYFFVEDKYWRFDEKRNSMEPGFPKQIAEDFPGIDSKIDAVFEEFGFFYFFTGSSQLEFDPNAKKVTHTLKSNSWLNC

[5] = molecular target: T4, Interstitial collagenase (Homo sapiens) (UniProt P03956); experiment: Inhibition of human recombinant MMP1 catalytic domain at 30 uM by substrate hydrolysis based fluorescence spectrophotometry
T4 sequence (whole entry): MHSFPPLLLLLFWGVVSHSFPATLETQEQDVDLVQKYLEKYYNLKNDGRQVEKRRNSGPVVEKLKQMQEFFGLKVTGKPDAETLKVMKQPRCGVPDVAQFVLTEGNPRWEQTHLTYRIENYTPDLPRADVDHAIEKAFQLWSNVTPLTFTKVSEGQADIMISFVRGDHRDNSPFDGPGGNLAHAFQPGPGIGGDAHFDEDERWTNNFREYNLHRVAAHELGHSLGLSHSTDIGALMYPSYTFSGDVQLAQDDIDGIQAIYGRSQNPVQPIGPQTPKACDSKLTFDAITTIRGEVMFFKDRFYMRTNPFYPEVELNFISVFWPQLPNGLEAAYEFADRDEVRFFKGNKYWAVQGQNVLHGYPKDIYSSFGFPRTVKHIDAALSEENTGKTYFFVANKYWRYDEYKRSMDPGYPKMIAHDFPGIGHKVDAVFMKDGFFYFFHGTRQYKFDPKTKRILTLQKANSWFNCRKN

[6] = molecular target: T5, Matrilysin (Homo sapiens) (UniProt P09237); experiment: Inhibition of human recombinant MMP7 catalytic domain at 30 uM by substrate hydrolysis based fluorescence spectrophotometry
T5 sequence (whole entry): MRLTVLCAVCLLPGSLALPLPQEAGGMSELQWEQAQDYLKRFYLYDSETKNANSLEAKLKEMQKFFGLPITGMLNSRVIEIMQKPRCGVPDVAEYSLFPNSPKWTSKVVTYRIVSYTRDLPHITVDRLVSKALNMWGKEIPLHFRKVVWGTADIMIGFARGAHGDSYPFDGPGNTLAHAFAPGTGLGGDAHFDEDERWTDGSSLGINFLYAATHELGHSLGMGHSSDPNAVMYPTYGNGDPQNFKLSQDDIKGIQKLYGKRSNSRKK

[7] = Half life in rat liver microsomes at 100 uM by HPLC; format: ADME, Microsome
[8] = Intrinsic clearance in rat liver microsomes at 100 uM by HPLC; format: ADME, Microsome
[9] = molecular target: 72 kDa type IV collagenase (Homo sapiens, UniProt P08253)
Description: Inhibition of MMP2 by substrate hydrolysis based fluorescence spectrophotometry

[10] = molecular target: T1, Matrix metalloproteinase-9
Description: Inhibition of human recombinant MMP9 catalytic domain by substrate hydrolysis based fluorescence spectrophotometry

[11] = physchem; details: aqueous
Description: Aqueous solubility of the compound

[12] = molecular target: T4, Interstitial collagenase (Homo sapiens); experiment: Inhibition of human recombinant MMP1 catalytic domain at 40 uM by substrate hydrolysis based fluorescence spectrophotometry
[13] = molecular target: T5, Matrilysin (Homo sapiens); experiment: Inhibition of human recombinant MMP7 catalytic domain at 40 uM by substrate hydrolysis based fluorescence spectrophotometry
[14] = molecular target: T5, Matrilysin (Homo sapiens); experiment: Inhibition of human recombinant MMP7 catalytic domain assessed as dissociation rate constant by substrate hydrolysis based fluorescence spectrophotometry
[15] = molecular target: T3, Stromelysin-1; experiment: Inhibition of human recombinant MMP3 catalytic domain at 200 uM by substrate hydrolysis based fluorescence spectrophotometry
Target sequence in this assay (P08254 100-477 limits assumed): as the sequence (P08254 100-477 limits assumed) above

[16] = molecular target: T4, Interstitial collagenase (Homo sapiens); experiment: Inhibition of human recombinant MMP1 catalytic domain at 200 uM by substrate hydrolysis based fluorescence spectrophotometry
[17] = Half life in rat liver microsomes at 200 uM by HPLC; format: ADME, Microsome
[18] = Intrinsic clearance in rat liver microsomes at 200 uM by HPLC; format: ADME, Microsome
[19] = molecular target: T6, Matrilysin (Homo sapiens, UniProt P09237)
T6 sequence (P09237 whole entry): T5 sequence (whole entry)
Description: Inhibition of human recombinant MMP7 catalytic domain by substrate hydrolysis based fluorescence spectrophotometry

[20] = molecular target: T3, Stromelysin-1
Target sequence in this assay (P08254 whole entry, the tested form may be a part): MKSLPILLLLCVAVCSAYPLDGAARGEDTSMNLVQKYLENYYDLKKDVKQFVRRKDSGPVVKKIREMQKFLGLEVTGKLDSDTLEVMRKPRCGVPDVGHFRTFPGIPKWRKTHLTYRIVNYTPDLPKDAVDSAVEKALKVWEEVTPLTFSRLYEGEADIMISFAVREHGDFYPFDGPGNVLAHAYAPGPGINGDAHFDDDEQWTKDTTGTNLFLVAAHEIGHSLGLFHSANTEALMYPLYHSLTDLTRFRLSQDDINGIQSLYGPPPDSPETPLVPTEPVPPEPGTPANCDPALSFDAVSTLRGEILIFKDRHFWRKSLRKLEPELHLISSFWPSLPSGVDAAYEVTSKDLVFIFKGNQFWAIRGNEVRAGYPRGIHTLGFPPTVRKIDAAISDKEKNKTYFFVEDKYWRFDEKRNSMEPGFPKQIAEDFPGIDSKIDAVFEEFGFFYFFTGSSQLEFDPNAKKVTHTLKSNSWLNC
Description: Inhibition of human recombinant MMP3 catalytic domain by substrate hydrolysis based fluorescence spectrophotometry

[21] = molecular target: T4, Interstitial collagenase (Homo sapiens); experiment: Inhibition of human recombinant MMP1 catalytic domain at 20 uM by substrate hydrolysis based fluorescence spectrophotometry
[22] = molecular target: T5, Matrilysin (Homo sapiens); experiment: Inhibition of human recombinant MMP7 catalytic domain at 20 uM by substrate hydrolysis based fluorescence spectrophotometry
[23] = molecular target: T7, Interstitial collagenase (Homo sapiens, UniProt P03956)
T7 sequence (P03956 whole entry): T4 sequence (whole entry)
Description: Inhibition of human recombinant MMP1 catalytic domain by substrate hydrolysis based fluorescence spectrophotometry

T1 sequence (P14780 whole entry, the tested form may be a part): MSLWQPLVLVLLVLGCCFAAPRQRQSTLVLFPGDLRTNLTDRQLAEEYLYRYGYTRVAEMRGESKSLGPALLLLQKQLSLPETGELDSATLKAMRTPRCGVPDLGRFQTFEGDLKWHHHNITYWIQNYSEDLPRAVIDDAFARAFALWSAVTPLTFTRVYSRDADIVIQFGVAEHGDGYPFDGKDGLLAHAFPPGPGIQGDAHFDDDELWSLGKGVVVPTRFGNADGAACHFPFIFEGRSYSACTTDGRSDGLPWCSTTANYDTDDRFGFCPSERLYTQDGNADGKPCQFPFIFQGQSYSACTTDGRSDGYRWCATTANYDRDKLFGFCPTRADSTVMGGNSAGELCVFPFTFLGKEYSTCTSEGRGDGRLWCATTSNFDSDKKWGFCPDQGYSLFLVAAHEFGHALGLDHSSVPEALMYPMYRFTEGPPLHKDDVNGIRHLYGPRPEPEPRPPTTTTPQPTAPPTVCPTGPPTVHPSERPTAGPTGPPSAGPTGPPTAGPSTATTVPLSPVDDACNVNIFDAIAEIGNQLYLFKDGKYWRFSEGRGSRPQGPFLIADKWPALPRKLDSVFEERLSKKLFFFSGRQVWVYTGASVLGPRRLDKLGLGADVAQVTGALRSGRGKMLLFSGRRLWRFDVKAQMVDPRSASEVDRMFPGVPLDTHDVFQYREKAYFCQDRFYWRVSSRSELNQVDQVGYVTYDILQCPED
Sequence of 72 kDa type IV collagenase (P08253 whole entry): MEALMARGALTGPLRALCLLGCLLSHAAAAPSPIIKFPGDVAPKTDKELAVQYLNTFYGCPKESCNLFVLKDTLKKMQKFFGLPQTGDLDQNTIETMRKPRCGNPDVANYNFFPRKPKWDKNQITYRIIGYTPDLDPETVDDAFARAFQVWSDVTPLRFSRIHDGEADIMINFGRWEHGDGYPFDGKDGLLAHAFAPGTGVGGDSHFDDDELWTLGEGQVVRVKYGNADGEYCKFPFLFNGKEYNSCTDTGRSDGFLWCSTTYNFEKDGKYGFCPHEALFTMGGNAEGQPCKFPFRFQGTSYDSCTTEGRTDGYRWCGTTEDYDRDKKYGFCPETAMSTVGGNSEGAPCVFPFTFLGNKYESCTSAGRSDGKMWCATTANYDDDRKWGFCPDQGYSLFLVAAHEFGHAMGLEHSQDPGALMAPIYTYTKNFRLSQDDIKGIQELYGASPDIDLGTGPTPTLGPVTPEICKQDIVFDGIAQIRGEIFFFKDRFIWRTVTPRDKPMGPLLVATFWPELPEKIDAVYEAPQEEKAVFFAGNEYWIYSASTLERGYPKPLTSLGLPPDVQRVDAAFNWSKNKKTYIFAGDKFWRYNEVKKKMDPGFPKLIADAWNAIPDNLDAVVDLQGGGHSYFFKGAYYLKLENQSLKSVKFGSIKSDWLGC

Compound | Activity [1] | Activity [2] | Ki [3] | inhibition [4] | half-life at 100 µM [7] | CLint scaled at 100 µM [8] | Ki [9] | Ki [10] | solubility [11] | Activity [14] | inhibition [15] | inhibition [16] | half-life at 200 µM [17] | CLint scaled at 200 µM [18] | Ki [19] | further results
CC(C)CS(=O)(=O)Oc1ccc(Oc2ccc(S(=O)(=O)CC3CS3)cc2)cc1 (stereo not given) | 2 ×10⁻³ /s | 2 ×10⁻³ /s | 790 nM | 5% | 16.2 min | 86.5 mL/min/kg | 61 nM | 380 nM | 1.1 µg/mL (≈ 2.49 µM) | – | – | – | – | – | – | inhibition [5]: inactive; inhibition [6]: inactive
CCS(=O)(=O)Oc1ccc(Oc2ccc(S(=O)(=O)CC3CS3)cc2)cc1 (stereo not given) | 1.5 ×10⁻³ /s | 9 ×10⁻³ /s | 360 nM | 38% | 35.9 min | 39 mL/min/kg | 70 nM | 330 nM | 4.1 µg/mL (≈ 9.89 µM) | – | – | – | – | – | – | inhibition [12]: inactive; inhibition [13]: 8%
CC(C)CS(=O)(=O)Oc1ccc(S(=O)(=O)CC2CS2)cc1 (stereo not given) | 1.9 ×10⁻³ /s | 1.7 ×10⁻³ /s | 20000 nM | – | – | – | 240 nM | 3500 nM | 230 µg/mL (≈ 656 µM) | 1.4 ×10⁻³ /s | 25% | inactive | 36.1 min | 38.8 mL/min/kg | 120000 nM | –
CS(=O)(=O)Oc1ccc(Oc2ccc(S(=O)(=O)CC3CS3)cc2)cc1 (stereo not given) | 0.1 ×10⁻³ /s | – | – | – | 24.8 min | 56.5 mL/min/kg | – | – | 3.5 µg/mL (≈ 8.74 µM) | – | – | – | – | – | – | Ki [20]: 600 nM
CCCS(=O)(=O)Oc1ccc(S(=O)(=O)CC2CS2)cc1 (stereo not given) | 0.9 ×10⁻³ /s | 1.5 ×10⁻³ /s | 32000 nM | – | – | – | 280 nM | 6200 nM | 96 µg/mL (≈ 285 µM) | 0.8 ×10⁻³ /s | 58% | 30% | 29.8 min | 47.2 mL/min/kg | 35000 nM | –
O=S(=O)(CC1CS1)c1ccc(Oc2ccccc2)cc1 (stereo not given) | 7.1 ×10⁻³ /s | – | 110 nM | – | 12 min | 117 mL/min/kg | – | – | – | – | – | – | – | – | – | –
CCS(=O)(=O)Oc1ccc(S(=O)(=O)CC2CS2)cc1 (stereo not given) | 1.8 ×10⁻³ /s | 1.6 ×10⁻³ /s | 11000 nM | – | – | – | 90 nM | 12000 nM | 114 µg/mL (≈ 354 µM) | 0.6 ×10⁻³ /s | 62% | 7% | 31.8 min | 44.2 mL/min/kg | 26000 nM | –
CCCS(=O)(=O)Oc1ccc(Oc2ccc(S(=O)(=O)CC3CS3)cc2)cc1 (stereo not given) | 1.6 ×10⁻³ /s | 1.8 ×10⁻³ /s | 240 nM | 22% | 12.6 min | 111 mL/min/kg | 34 nM | 520 nM | 4 µg/mL (≈ 9.33 µM) | – | – | – | – | – | – | inhibition [21]: inactive; inhibition [22]: 5%
CS(=O)(=O)Oc1ccc(S(=O)(=O)CC2CS2)cc1 (stereo not given) | 0.25 ×10⁻³ /s | 0.2 ×10⁻³ /s | 480 nM | – | – | – | 390 nM | 3900 nM | 167 µg/mL (≈ 542 µM) | 0.5 ×10⁻³ /s | 29% | – | 45.3 min | 31 mL/min/kg | 11000 nM | Ki [23]: 41000 nM
